Experimental data published in patent publication US4279915A, “Method of treatment using new leurosine derivatives” (priority 1973, dated 1981).

Tests used:
[1] = acute toxicity in Swiss mice; assay type: in vivo, mouse; settings: mouse, in vivo, Swiss mice
Source text: ACUTE TOXICITY IN SWISS MICE
Table III lists the comparative toxicological data concerning Vincristine, Vinblastine and F-leurosine. The new analogue is approximately 7 times less toxic than Vincristine and 4 times less toxic than Vinblastine in acute rodent experiments.

[2] = system: Harding Passey melanoma; settings: cited from earlier work
[3] = system: VX-2 rabbit epitheloma; settings: cited from earlier work
[4] = system: rhabdomyo-sarcoma; settings: cited from earlier work
[5] = system: cancer; settings: animal tests and human therapy; cited from earlier work

Row | Compound | LD50 ([1]; ip, 1 x i.p.) [mg/kg] | LD50 ([1]; iv, 1 x i.v.) [mg/kg] | treatability with hitherto known cytostatics [2] | treatability with hitherto known cytostatics [3] | treatability with hitherto known cytostatics [4] | activity relative to vinblastine [5]
1 | CC[C@]1(O)C[C@@H]2CN(CCc3c([nH]c4ccccc34)[C@@](C(=O)OC)(c3cc4c(cc3OC)N(C)[C@H]3[C@@](O)(C(=O)OC)[C@H](OC(C)=O)[C@]5(CC)C=CCN6CC[C@]43[C@@H]65)C2)C1 [Vinblastine, vincaleucoblastine] | 7.6 | 15 | could hardly be treated, if at all | could hardly be treated, if at all | could hardly be treated, if at all | –
2 | CC[C@]1(O)C[C@H]2CN(CCc3c([nH]c4ccccc34)[C@@](C(=O)OC)(c3cc4c(cc3OC)N(C=O)[C@H]3[C@@](O)(C(=O)OC)[C@H](OC(C)=O)[C@]5(CC)C=CCN6CC[C@]43[C@@H]65)C2)C1 [Vincristine, leurocristine] | 4 | 3 | could hardly be treated, if at all | could hardly be treated, if at all | could hardly be treated, if at all | more active both in animal tests, and, primarily, in human therapy
